# Laboratory results reported in article PMC6522510 (Nature Communications, 2019).
# Assays:
# Parameters in all cases: species or system AML cell lines (8); Primary HTS, single concentration about 10 uM, Cell Titer Glo viability; log10 luminescence, per cent inhibition relative to cycloheximide control
# Settings in all cases: 72 h, relative to cycloheximide control, log10 luminescence; inhibitor
# CMK = system: CMK
# U937 = system: U937
# ML-2 = system: ML-2
# MV4-11 = system: MV4-11
# M07e = system: M07e
# MOLM-13 = system: MOLM-13
# CMS = system: CMS
# CHRF288-11 = system: CHRF288-11
SMILES,CMK %inh (CMK),U937 %inh (U937),ML-2 %inh (ML-2),MV4-11 %inh (MV4-11),M07e %inh (M07e),MOLM-13 %inh (MOLM-13),CMS %inh (CMS),CHRF288-11 %inh (CHRF288-11)
Cn1cc(C2=C(c3c([S+](C)[O-])n(C)c4ccccc34)C(=O)NC2=O)c2ccccc21 (stereo not shown) [SJ000581040-1],-2.072%,0.5237%,2.43%,0.5816%,1.342%,-1.878%,0.8019%,12.43%
Cn1cc(C2=C(c3cn(CCO)c4ccccc34)C(=O)NC2=O)c2ccccc21 [SJ000581041-1],80.06%,14.77%,20.21%,18.13%,13.99%,54.73%,9.772%,72.88%
Cn1c(=O)c(Oc2ccc(F)cc2F)cc2cnc(NC3CCC(O)CC3)nc21 (stereo not shown) [SJ000581046-1],-4.641%,2.264%,1.601%,-0.7465%,1.519%,1.486%,-2.545%,5.265%
CC(C)(O)CCc1cccc(C(=O)c2cnn(-c3ccc(F)cc3)c2N)c1 [SJ000581047-1],-5.065%,-2.635%,1.278%,-0.34%,3.158%,-1.69%,5.394%,1.391%
Cc1[nH]n(-c2ccccc2)c(=O)c1C(=O)c1ccccc1 [SJ000581048-1],-9.373%,-0.7202%,0.679%,-2.724%,-0.3361%,-1.767%,1.313%,3.222%
O=C1NC(=NCc2c(Cl)cccc2Cl)S/C1=C\c1ccc2ncccc2c1 [SJ000581049-1],-7.089%,5.41%,1.063%,-1.821%,1.964%,5.37%,2.314%,-0.3937%
COc1cccc(C2=C(c3cn(C)c4ccccc34)C(=O)NC2=O)c1 [SJ000581051-1],-3.208%,-2.854%,-0.8075%,1.602%,5.285%,1.318%,3.466%,11.8%
Cc1nc2sc3c(N)ncnc3c2c(C)c1C [SJ000581052-1],-9.059%,1.552%,0.8474%,-2.527%,0.5709%,0.3678%,0.007081%,5.518%
Cn1cc(C2=C(n3ccc4ccccc43)C(=O)NC2=O)c2ccccc21 [SJ000581055-1],-4.048%,-2.193%,-0.8882%,-2.255%,-0.4303%,-2.803%,4.23%,24.92%
CC(=O)N[C@@H](Cc1ccc(OP(=O)(O)O)cc1)C(=O)N[C@H]1CCC(=O)N2CCC[C@@H](C(=O)NCc3ccc(Cl)cc3)N2C1=O [SJ000581056-1],-8.834%,-1.499%,-0.961%,-2.949%,-0.4557%,-1.276%,0.4986%,0.8967%
C[C@H](CS(C)(=O)=O)Nc1ncc2cc(Oc3ccc(F)cc3F)c(=O)n(C)c2n1 [SJ000581059-1],-5.286%,2.611%,1.6%,-0.5733%,5.493%,-1.998%,4.304%,14.97%
C[C@@H](CS(C)(=O)=O)Nc1ncc2cc(Oc3ccc(F)cc3F)c(=O)n(C)c2n1 [SJ000581059-2],2.224%,2.114%,-1.135%,3.472%,9.03%,1.811%,1.072%,4.121%
Fc1ccc(-c2c(-c3ccncc3)n(CCN3CCOCC3)c3cccnc23)cc1 [SJ000581060-1],-1.956%,3.3%,0.7421%,-0.5528%,4.186%,-2.603%,2.843%,10.61%
Cn1c(=O)c(Oc2ccccc2F)cc2cnc(NC3CCOCC3)nc21 [SJ000581061-1],-2.528%,1.19%,3.823%,0.7758%,6.564%,-1.076%,1.876%,11.16%
Cn1c(=O)c(Oc2ccc(F)cc2F)cc2cnc(NC3CCS(=O)(=O)CC3)nc21 [SJ000581062-1],-3.198%,4.309%,1.685%,-0.9313%,3.904%,-0.445%,-1.245%,0.18%
O=C1NC(=NCC(CO)c2ccccc2)S/C1=C\c1ccc2ncccc2c1 (stereo not shown) [SJ000581063-1],-3.487%,16.39%,3.168%,53.98%,4.562%,2.415%,4.364%,1.779%
Cn1cc(C2=C(c3cn(C)c4ccc(OCc5ccccc5)cc34)C(=O)NC2=O)c2ccccc21 [SJ000581064-1],-3.355%,-0.03201%,-0.03114%,0.7902%,0.1859%,-0.8092%,2.588%,7.008%
O=C1C(c2c[nH]c3ccccc23)=C(c2c[nH]c3ccccc23)C(=O)N1O [SJ000581067-1],-5.714%,-1.683%,-0.2137%,1.166%,0.7451%,0.2373%,-0.1746%,18.95%
Cn1cc(C2=C(c3cn(C)c4cc(C(N)=O)ccc34)C(=O)NC2=O)c2ccccc21 [SJ000581068-1],87.67%,75.21%,54.4%,76.64%,58.86%,63.24%,51.9%,59.82%
Cn1cc(C2=C(c3c[nH]c4ccccc34)C(=O)NC2=O)c2ccccc21 [SJ000581069-1],44.1%,53.14%,39.66%,15.94%,40.86%,79.5%,13.88%,37%
